PubChem BioAssay (NCI)
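48-hour exposure; five concentrations; linearly interpolated endpoints. TGI: concentration producing complete growth inhibition.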

Columns and labels:
Experiment in all cases: inhibition of tumour cell growth, NCI panel, 48 h
[1] = system: 786-0 renal
[2] = system: A498 renal
[3] = system: A549 NSCLC
[4] = system: ACHN renal
[5] = system: BT-549 breast
[6] = system: CAKI-1 renal
[7] = system: CCRF-CEM leukemia
[8] = system: COLO 205 colon
[9] = system: DU-145 prostate
[10] = system: EKVX NSCLC
[11] = system: HCC-2998 colon
[12] = system: HCT-116 colon
[13] = system: HCT-15 colon
[14] = system: HL-60(TB) leukemia
[15] = system: HOP-62 NSCLC
[16] = system: HOP-92 NSCLC
[17] = system: HS 578T breast
[18] = system: HT29 colon
[19] = system: IGROV1 ovarian
[20] = system: K-562 leukemia
[21] = system: KM12 colon
[22] = system: LOX IMVI melanoma
[23] = system: M14 melanoma
[24] = system: MALME-3M melanoma
[25] = system: MCF7 breast
[26] = system: MDA-MB-231 breast
[27] = system: MDA-MB-435
[28] = system: MDA-N
[29] = system: MOLT-4 leukemia
[30] = system: NCI-H226 lung
[31] = system: NCI-H23 lung
[32] = system: NCI-H460 lung
[33] = system: NCI-H522 lung
[34] = system: NCI/ADR-RES ovarian
[35] = system: OVCAR-3 ovarian
[36] = system: OVCAR-4 ovarian
[37] = system: OVCAR-5 ovarian
[38] = system: OVCAR-8 ovarian
[39] = system: PC-3 prostate
[40] = system: RPMI-8226 leukemia
[41] = system: RXF 393 renal
[42] = system: SF-268 CNS
[43] = system: SF-295 CNS
[44] = system: SF-539 CNS
[45] = system: SK-MEL-2 melanoma
[46] = system: SK-MEL-28 melanoma
[47] = system: SK-MEL-5 melanoma
[48] = system: SK-OV-3 ovarian
[49] = system: SN12C renal
[50] = system: SNB-19 CNS
[51] = system: SR leukemia
[52] = system: SW-620 colon
[53] = system: T-47D breast
[54] = system: TK-10 renal
[55] = system: U251 CNS
[56] = system: UACC-257 melanoma
[57] = system: UACC-62 melanoma
[58] = system: UO-31 renal

## COC(=O)c1c(C)nc(C)c(NO)c1-c1ccccc1C(F)(F)F
[1]
  TGI: 30.2 µM
[2]
  TGI: > 100 µM
[3]
  TGI: > 100 µM
[4]
  TGI: 71.6 µM
[5]
  TGI: 30.8 µM
[6]
  TGI: 43.3 µM
[7]
  TGI: > 100 µM
[8]
  TGI: 70.2 µM
[9]
  TGI: > 100 µM
[10]
  TGI: > 100 µM
[11]
  TGI: > 100 µM
[12]
  TGI: 29.9 µM
[13]
  TGI: 32.3 µM
[14]
  TGI: > 100 µM
[15]
  TGI: > 100 µM
[16]
  TGI: 29 µM
[17]
  TGI: > 100 µM
[18]
  TGI: 33.7 µM
[19]
  TGI: 35.6 µM
[20]
  TGI: > 100 µM
[21]
  TGI: > 100 µM
[22]
  TGI: > 100 µM
[23]
  TGI: 39.5 µM
[24]
  TGI: 32.8 µM
[25]
  TGI: 39.2 µM
[26]
  TGI: 27.9 µM
[27]
  TGI: 37.6 µM
[28]
  TGI: 30.5 µM
[29]
  TGI: > 100 µM
[30]
  TGI: 76.7 µM
[31]
  TGI: 84.3 µM
[32]
  TGI: > 100 µM
[33]
  TGI: 33.1 µM
[34]
  TGI: 38.4 µM
[35]
  TGI: 30.3 µM
[36]
  TGI: 39.2 µM
[37]
  TGI: > 100 µM
[38]
  TGI: 33.2 µM
[39]
  TGI: > 100 µM
[40]
  TGI: 70.6 µM
[41]
  TGI: 32 µM
[42]
  TGI: > 100 µM
[43]
  TGI: > 100 µM
[44]
  TGI: 38.6 µM
[45]
  TGI: > 100 µM
[46]
  TGI: 38.1 µM
[47]
  TGI: > 100 µM
[48]
  TGI: > 100 µM
[49]
  TGI: 62.4 µM
[50]
  TGI: > 100 µM
[51]
  TGI: > 100 µM
[52]
  TGI: 30.2 µM
[53]
  TGI: 66.1 µM
[54]
  TGI: 37.4 µM
[55]
  TGI: > 100 µM
[56]
  TGI: 42.8 µM
[57]
  TGI: > 100 µM
[58]
  TGI: 74.2 µM
